Values after ≈ are worked out from the molar mass of the structure shown. Non-standard residues stand in square brackets, D forms with d. Residues, ends and D or L forms follow the SMILES beside them. dPhe(3,4-F2) = N[C@H](Cc1ccc(F)c(F)c1)C(=O)O; dPhe(4-Cl) = N[C@H](Cc1ccc(Cl)cc1)C(=O)O; dPhe(4-F) = N[C@H](Cc1ccc(F)cc1)C(=O)O; d2Nal = N[C@H](Cc1ccc2ccccc2c1)C(=O)O
Key:
rabbit red blood cells = format: cell-based; conditions: red cells of rabbit, 1 h
[1] = Serum stability assay (residual level by RP-HPLC); conditions: human
[2] = tested on: Bacillus subtilis ATCC 6633; format: cell-based
Outline: (§1)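 Five parallel repeats; twofold dilution series of each peptide per US CLSI susceptibility protocol; endpoint = MIC.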

[3] = tested on: Salmonella typhimurium ATCC 14028; format: cell-based
Outline: as §1

Candida utilis ATCC 9950 = format: cell-based
Outline: as §1

[4] = tested on: Candida glabrata ATCC 15126; format: cell-based
Outline: as §1

[5] = tested on: Staphylococcus aureus ATCC 25923; format: cell-based
Outline: as §1

[6] = tested on: Staphylococcus aureus (NRS 384); assay: microbe, parasite or virus in culture; format: cell-based; conditions: NRS 384
Outline: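 CLSI broth microdilution with serial twofold dilutions gave MICs against S. aureus NRS 384, with 5 parallel replicates. Levofloxacin and the AMP Cbf-K16 served as positive controls.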

For `CC(=O)N[C@H](CCCNC(=N)N)C(=O)N[C@H](CCCNC(=N)N)C(=O)N[C@H](CC(C)C)C(=O)N[C@H](CC(C)C)C(=O)N[C@H](Cc1ccc2ccccc2c1)C(=O)N[C@H](CCCNC(=N)N)C(=O)N[C@H](CC(C)C)C(=O)N[C@H](CCCNC(=N)N)C(=O)N[C@H](Cc1ccc2ccccc2c1)C(=O)N[C@H](CCCNC(=N)N)C(=O)N[C@H](CCCNC(=N)N)C(N)=O` [LV-1] (Ac-[dR][dR][dL][dL][d2Nal][dR][dL][dR][d2Nal][dR][dR]-NH2), the “MHC (minimum hemolytic concentration, lowest concentration causing 10% hemolysis)” value (rabbit red blood cells) was greater than 1000 µg/mL, the remaining at 12 h, 0.91 mg/mL [1] was 98.5% and the “MIC Bacillus subtilis ATCC 6633” value [2] was 4 µg/mL (≈ 2.31 µM). For the same molecule, the “MIC Salmonella typhimurium ATCC 14028” value [3] was 2 µg/mL (≈ 1.16 µM), the “MIC Candida utilis ATCC 9950” value (Candida utilis ATCC 9950) was 8 µg/mL (≈ 4.62 µM) and the “MIC Candida glabrata ATCC 15126” value [4] was 8 µg/mL (≈ 4.62 µM). For the same molecule, the “MIC Staphylococcus aureus ATCC 25923” value [5] was 1 µg/mL (≈ 0.578 µM) and the “MIC against Staphylococcus aureus (NRS 384)” value (from here on “MIC … (NRS 384)”) [6] was 1 µg/mL (≈ 0.578 µM).

For `CC(=O)N[C@H](CCCNC(=N)N)C(=O)N[C@H](CCCCN)C(=O)N[C@H](CC(C)C)C(=O)N[C@H](CC(C)C)C(=O)N[C@H](Cc1ccccc1)C(=O)N[C@H](CCCNC(=N)N)C(=O)N[C@H](CC(C)C)C(=O)N[C@H](CCCCN)C(=O)N[C@H](Cc1ccccc1)C(=O)N[C@H](CCCNC(=N)N)C(=O)N[C@H](CCCCN)C(N)=O` [LV-2] (Ac-[dR][dK][dL][dL][dF][dR][dL][dK][dF][dR][dK]-NH2), the “MHC (minimum hemolytic concentration, lowest concentration causing 10% hemolysis)” value (rabbit red blood cells) was greater than 1000 µg/mL, the remaining at 12 h, 0.91 mg/mL [1] was 97.4% and the “MIC Bacillus subtilis ATCC 6633” value [2] was 2 µg/mL (≈ 1.29 µM). The “MIC Salmonella typhimurium ATCC 14028” value [3] was 2 µg/mL (≈ 1.29 µM), the “MIC Candida utilis ATCC 9950” value (Candida utilis ATCC 9950) was 8 µg/mL (≈ 5.17 µM) and the “MIC Candida glabrata ATCC 15126” value [4] was 16 µg/mL (≈ 10.3 µM). For the same molecule, the “MIC Staphylococcus aureus ATCC 25923” value [5] was 2 µg/mL (≈ 1.29 µM) and the “MIC … (NRS 384)” value [6] was 1 µg/mL (≈ 0.647 µM).

In the case of `CC(=O)N[C@H](CCCNC(=N)N)C(=O)N[C@H](CCCCN)C(=O)N[C@H](CC(C)C)C(=O)N[C@H](CC(C)C)C(=O)N[C@H](Cc1ccccc1)C(=O)N[C@H](CCCNC(=N)N)C(=O)N[C@H](CC(C)C)C(=O)N[C@H](CCCCN)C(=O)N[C@H](Cc1ccc2ccccc2c1)C(=O)N[C@H](CCCNC(=N)N)C(=O)N[C@H](CCCCN)C(N)=O` [LV-3] (Ac-[dR][dK][dL][dL][dF][dR][dL][dK][d2Nal][dR][dK]-NH2), the “MHC (minimum hemolytic concentration, lowest concentration causing 10% hemolysis)” value (rabbit red blood cells) is reported as greater than 1000 µg/mL, the remaining at 12 h, 0.91 mg/mL [1] is reported as 98.7% and the “MIC Bacillus subtilis ATCC 6633” value [2] is reported as 2 µg/mL (≈ 1.25 µM). The “MIC Salmonella typhimurium ATCC 14028” value [3] was 1 µg/mL (≈ 0.627 µM), the “MIC Candida utilis ATCC 9950” value (Candida utilis ATCC 9950) was 8 µg/mL (≈ 5.01 µM) and the “MIC Candida glabrata ATCC 15126” value [4] was 16 µg/mL (≈ 10 µM). The “MIC Staphylococcus aureus ATCC 25923” value [5] was 2 µg/mL (≈ 1.25 µM) and the “MIC … (NRS 384)” value [6] was 1 µg/mL (≈ 0.627 µM).

In the case of `CC(=O)N[C@H](CCCNC(=N)N)C(=O)N[C@H](CCCCN)C(=O)N[C@H](CC(C)C)C(=O)N[C@H](CC(C)C)C(=O)N[C@H](Cc1ccc2ccccc2c1)C(=O)N[C@H](CCCNC(=N)N)C(=O)N[C@H](CC(C)C)C(=O)N[C@H](CCCCN)C(=O)N[C@H](Cc1ccccc1)C(=O)N[C@H](CCCNC(=N)N)C(=O)N[C@H](CCCCN)C(N)=O` [LV-4] (Ac-[dR][dK][dL][dL][d2Nal][dR][dL][dK][dF][dR][dK]-NH2), the “MHC (minimum hemolytic concentration, lowest concentration causing 10% hemolysis)” value (rabbit red blood cells) is reported as greater than 1000 µg/mL, the remaining at 12 h, 0.91 mg/mL [1] is reported as 98.7% and the “MIC Bacillus subtilis ATCC 6633” value [2] is reported as 4 µg/mL (≈ 2.51 µM). The “MIC Salmonella typhimurium ATCC 14028” value [3] was 2 µg/mL (≈ 1.25 µM), the “MIC Candida utilis ATCC 9950” value (Candida utilis ATCC 9950) was 8 µg/mL (≈ 5.01 µM) and the “MIC Candida glabrata ATCC 15126” value [4] was 8 µg/mL (≈ 5.01 µM). For the same molecule, the “MIC Staphylococcus aureus ATCC 25923” value [5] was 1 µg/mL (≈ 0.627 µM) and the “MIC … (NRS 384)” value [6] was 1 µg/mL (≈ 0.627 µM).

With `CC(=O)N[C@H](CCCNC(=N)N)C(=O)N[C@H](CCCCN)C(=O)N[C@H](CC(C)C)C(=O)N[C@H](CC(C)C)C(=O)N[C@H](Cc1ccc(F)cc1)C(=O)N[C@H](CCCCN)C(=O)N[C@H](CC(C)C)C(=O)N[C@H](CCCCN)C(=O)N[C@H](Cc1ccc(F)cc1)C(=O)N[C@H](CCCCN)C(=O)N[C@H](CCCNC(=N)N)C(N)=O` [LV-5] (Ac-[dR][dK][dL][dL][dPhe(4-F)][dK][dL][dK][dPhe(4-F)][dK][dR]-NH2) the “MHC (minimum hemolytic concentration, lowest concentration causing 10% hemolysis)” value (rabbit red blood cells) was greater than 1000 µg/mL, the remaining at 12 h, 0.91 mg/mL [1] was 98.2% and the “MIC Bacillus subtilis ATCC 6633” value [2] was 4 µg/mL (≈ 2.57 µM). For the same molecule, the “MIC Salmonella typhimurium ATCC 14028” value [3] was 4 µg/mL (≈ 2.57 µM), the “MIC Candida utilis ATCC 9950” value (Candida utilis ATCC 9950) was 16 µg/mL (≈ 10.3 µM) and the “MIC Candida glabrata ATCC 15126” value [4] was 16 µg/mL (≈ 10.3 µM). The “MIC Staphylococcus aureus ATCC 25923” value [5] was 1 µg/mL (≈ 0.644 µM) and the “MIC … (NRS 384)” value [6] was 1 µg/mL (≈ 0.644 µM).

In the case of `CC(=O)N[C@H](CCCNC(=N)N)C(=O)N[C@H](CCCCN)C(=O)N[C@H](CC(C)C)C(=O)N[C@H](CC(C)C)C(=O)N[C@H](Cc1ccc(F)c(F)c1)C(=O)N[C@H](CCCCN)C(=O)N[C@H](CC(C)C)C(=O)N[C@H](CCCCN)C(=O)N[C@H](Cc1ccc(F)c(F)c1)C(=O)N[C@H](CCCCN)C(=O)N[C@H](CCCNC(=N)N)C(N)=O` [LV-6] (Ac-[dR][dK][dL][dL][dPhe(3,4-F2)][dK][dL][dK][dPhe(3,4-F2)][dK][dR]-NH2), the “MHC (minimum hemolytic concentration, lowest concentration causing 10% hemolysis)” value (rabbit red blood cells) is reported as greater than 1000 µg/mL, the remaining at 12 h, 0.91 mg/mL [1] is reported as 98% and the “MIC Bacillus subtilis ATCC 6633” value [2] is reported as 4 µg/mL (≈ 2.52 µM). For the same molecule, the “MIC Salmonella typhimurium ATCC 14028” value [3] was 2 µg/mL (≈ 1.26 µM), the “MIC Candida utilis ATCC 9950” value (Candida utilis ATCC 9950) was 8 µg/mL (≈ 5.03 µM) and the “MIC Candida glabrata ATCC 15126” value [4] was 8 µg/mL (≈ 5.03 µM). The “MIC Staphylococcus aureus ATCC 25923” value [5] was 1 µg/mL (≈ 0.629 µM) and the “MIC … (NRS 384)” value [6] was 1 µg/mL (≈ 0.629 µM).

For `CC(=O)N[C@H](CCCNC(=N)N)C(=O)N[C@H](CCCCN)C(=O)N[C@H](CC(C)C)C(=O)N[C@H](CC(C)C)C(=O)N[C@H](Cc1ccc(Cl)cc1)C(=O)N[C@H](CCCCN)C(=O)N[C@H](CC(C)C)C(=O)N[C@H](CCCCN)C(=O)N[C@H](Cc1ccc(Cl)cc1)C(=O)N[C@H](CCCCN)C(=O)N[C@H](CCCNC(=N)N)C(N)=O` [LV-7] (Ac-[dR][dK][dL][dL][dPhe(4-Cl)][dK][dL][dK][dPhe(4-Cl)][dK][dR]-NH2), the “MHC (minimum hemolytic concentration, lowest concentration causing 10% hemolysis)” value (rabbit red blood cells) was greater than 1000 µg/mL, the remaining at 12 h, 0.91 mg/mL [1] was 98.9% and the “MIC Bacillus subtilis ATCC 6633” value [2] was 4 µg/mL (≈ 2.52 µM). For the same molecule, the “MIC Salmonella typhimurium ATCC 14028” value [3] was 4 µg/mL (≈ 2.52 µM), the “MIC Candida utilis ATCC 9950” value (Candida utilis ATCC 9950) was 8 µg/mL (≈ 5.04 µM) and the “MIC Candida glabrata ATCC 15126” value [4] was 8 µg/mL (≈ 5.04 µM). For the same molecule, the “MIC Staphylococcus aureus ATCC 25923” value [5] was 1 µg/mL (≈ 0.63 µM) and the “MIC … (NRS 384)” value [6] was 1 µg/mL (≈ 0.63 µM).
